Columns and labels:
Format in all cases: in vivo
[1] = test system: corpus callosum of double transgenic mice treated with cuprizone; assay: Cuprizone-induced demyelination and remyelination in GFAP/tTA; TRE/IFN-γ double transgenic mice
Protocol: The effects of IFN-γ on demyelination were evaluated in a cuprizone animal model using transgenic mice that allow for temporally regulated delivery of IFN-γ using the tetracycline controllable system (Lin, et al. (2004) J. Neurosci. 24: 10074-10083). The transgenic mice were generated by mating line 110 GFAP/tTA mice on the C57BL/6 background with line 184 TRE/IFN-γ on the C57BL/6 background to produce GFAP/tTA; TRE/IFN-γ double transgenic mice (Lin, et al. (2004) J. Neurosci. 24: 10074-10083). Transcriptional activation of the TRE/IFN-γ transgene by tTA was repressed in the control (DOX+) mice by adding 0.05 mg/ml doxycycline to the drinking water which was provided ad libitum from the day of conception. The DOX+ double transgenic mice were GFAP/tTA; TRE/IFN-γdouble transgenic animals fed cuprizone chow and never released from the doxycycline solution. DOX− double transgenic mice were GFAP/tTA; TRE/IFN-γdouble transgenic animals fed cuprizone chow and released from doxycycline to induce expression of IFN-γ.
Demyelination was induced in 6-week-old DOX+ and DOX− male mice by feeding the mice a diet of milled mouse chow containing 0.2% cuprizone (Sigma-Aldrich, St. Louis, […].) for up to 6 weeks. Subsequently, both groups of mice were returned to a normal diet for up to 3 weeks to allow remyelination to occur. All animal procedures were conducted in complete compliance with the NIH Guide for the Care and Use of Laboratory Animals and were approved by the Institutional Animal Care and Use Committee of The University of Chicago.
The effects of INF-γ and MBP on demyelination were evaluated as the level of INF-γ and MHC-1, the loss of oligodendrocytes, and the expression of myelin genes.
The expression of IFN-γ in these animals was examined by Enzyme-Linked Immunosorbent Assay (ELISA) analysis as follows. Spinal cord and forebrains were removed, rinsed in ice cold PBS, and immediately homogenized in five volumes of PBS with complete protease cocktail (Roche, Indianapolis, Ind.) using a motorized homogenizer. After incubation on ice for 5 min the extracts were cleared by centrifugation at 14000 rpm for 10 min. The protein content of each extract was determined by the DC protein assay (Bio-Rad, Hercules, Calif.). […]
The effect of INF-γ on the population of oligodendrocytes was evaluated by immunohistochemical analysis of oligodendrocytes using an anti-CC1 antibody (APC7, 1:50; EMD Biosciences, Inc., La Jolla, Calif.) Immunohistochemistry was performed on brain sections obtained from mice that were first anesthetized mice and perfused through the left cardiac ventricle with 4% paraformaldehyde in 0.1 M PBS. […]

mice with EAE = assay: EAE, CNS delivery of INF-γ at the recovery stage (doxycycline withdrawn at PID7)
Description: Double transgenic mice that allow for temporally regulated delivery of INF-γ to the CNS (Lin et al., J Neurosci 24:10074-10083 (2004)) were used to assess the role of INF-γ in the pathogenesis of EAE. GFAP/tTA; TRE/IFN-γ double transgenic mice, as described in Example 1 were used to determine the effect of INF-γ on the demyelination caused by EAE. All mice were fed doxycycline from the day of conception to repress the expression of INF-γ, and were immunized with myelin oligodendrocyte protein (MOG35-55) to induce EAE. At day 7 postimmunization (PID7), doxycycline was withdrawn from the experimental group (PID7 DOX−).
The level of INF-γ was determined in the control (DOX+) and the PID7 DOX− mice using an ELISA immunoassay as described in Example 1, and the severity of the disease was assessed as a function of a clinical score. Clinical severity scores were recorded daily according to a 0-5 point scale, where 0=healthy, 1=flaccid tail, 2=ataxia and/or paresis of hind limbs, 3=paralysis of hind limbs and/or paresis of forelimbs, 4=tetraparalysis, and 5=moribund or dead.
The spinal cord from DOX+ and DOX− animals with EAE was immunostained for MBP, and the remyelination of axons was evaluated. The number of oligodendrocytes was determined in the spine from DOX+ and DOX− mice as the number of CC1 positive cells. Axonal damage was evaluated by immunostaining of non-phosphorylated neurofilament-H. Antibodies to non-phosphorylated neurofilament-H were SMI32 diluted to 1:1000 and obtained from Stemberger Monoclonals.
INF-γ is known to induce MHC antigens and activate macrophages and T lymphocytes. The inflammatory effect of INF-γ was studied in the CNS during remyelination by determining the infiltration of T cells and macrophages, and measuring the expression of MHC-1, TNF-a, IL-2, IL-12 and IL-17. Immunohistochemistry was performed in tissues from the DOX+ and DOX− mice with EAE as described in Example 4. Experimental procedures were followed as described in the examples above.

[2] = test system: oligodendrocytes in adult mice; assay: IFN-γ expression in the CNS of adult double transgenic mice (released from doxycycline at 4 weeks of age)
Description: Compared with the actively myelinating oligodendrocytes of young growing animals, oligodendrocytes in adult mice produce lower levels of membrane proteins and lipids, just enough to maintain homeostasis in the myelin structure (Morell, et al. (1999) Basic Neurochemistry: Molecular, Cellular, and Medical Aspects (Philadelphia, Pa.: Lippincott-Raven Publishers): 69-93). The ER of oligodendrocytes in adult animals may thus have more spare capacity to process increased protein load and as such may be less sensitive to disruptions of the protein secretory pathway. To examine this possibility, double transgenic mice were allowed to develop to maturity, at which time IFN-γ expression in the CNS was initiated.

[3] = spinal cord, DOX− compared to DOX+, PID50

interferon-γ [IFN-γ]
remyelinated axons ([1]; DOX− mice, corpus callosum, 8 weeks, EM): 26.9%±7% | expression of myelin genes MBP, PLP and CGT ([1]; DOX− mice, corpus callosum, week 6 and week 8): significantly depressed | expression of MHC class I (MHC-I) in the corpus callosum, real-time PCR ([1]; DOX− mice, during remyelination): significant increase | effect on the initial pathological processes induced by cuprizone exposure ([1]; DOX− vs DOX+ mice, up to 5 weeks cuprizone): does not have a significant effect | number of CC1 positive oligodendrocytes (mice with EAE; DOX− animals, lumbar spinal cord, PID50): significantly decreased | mice that developed hind limb paralysis (mice with EAE; DOX− mice, PID17): 24 of 30 | mean maximum clinical score (mice with EAE; DOX− mice, PID17, 0-5 point scale): 2.69±0.69 | clinical score (mice with EAE; DOX− mice, PID50): ~2 | mice with hind limb paralysis that continued to suffer from the paralysis (mice with EAE; DOX− mice, PID50): 12/24 | axonal damage (non-phosphorylated neurofilament-H immunostaining) (mice with EAE; DOX− vs DOX+ mice): not affected | number of infiltrating T cells and macrophages in the lumbar spinal cord (CD3, CD11b) (mice with EAE; DOX− vs DOX+ mice): did not increase significantly | expression of IL-17 (mice with EAE; [3]): decrease | expression of iNOs and IL-23 (mice with EAE; [3]): did not alter | expression of MHC-1, TNF-a, IL2 and IL-12 (mice with EAE; spinal cord, DOX− compared to DOX+, PID50, real time PCR): increased | BIP and CHOP in the cerebellum ([2]; 10-week-old mice released from doxycycline at 4 weeks of age): modest induction | oligodendrocyte survival ([2]; adult mice, wild-type or PERK+/− background): did not affect

Source: patent US8309790B2, “Animal models for demyelination disorders” (University of Chicago, priority 2005, dated 2012)
